One assay relates to Ramos RA1 B cells. Nature of the assay: Ramos FLIPR Assay (intracellular calcium). It is filed as cell-based. To be noted: Homo sapiens; Ramos RA1 B cells stimulated with F(ab')2 anti-IgM/IgG, peak intracellular calcium; read-out: Human Ramos Cell FLIPR (IC50 uM). On the procedure: Ramos RA1 B cells (ATCC CRL-1596) at a density of 2×10^6 cells/ml in RPMI minus phenol red (Invitrogen 11835-030) and 50 mM HEPES (Invitrogen 15630-130) containing 0.1% BSA (Sigma A8577) were added to one half volume of calcium loading buffer (BD bulk kit for probenecid sensitive assays, # 640177) and incubated at room temperature in the dark for 1 hour. Dye-loaded cells were pelleted (Beckmann GS-CKR, 1200 rpm, RT, 5 minutes) and resuspended in RT RPMI minus phenol red with 50 mM HEPES and 10% FBS to a density of 1×10^6 cells/ml. 150 μl aliquots (150,000/well) were plated into 96 well poly-D-lysine coated assay plates (BD 35 4640) and briefly centrifuged (Beckmann GS-CKR 800 rpm, 5 minutes, without brake). 50 μl compound dilutions in 0.4% DMSO/RPMI minus phenol red+50 mM HEPES+10% FBS were added to the wells and the plate was incubated at RT in the dark for 1 hour. Assay plate was briefly centrifuged as above prior to measuring calcium levels.
Using the FLIPR1 (Molecular devices), cells were stimulated by adding 50 μl 200 μg/ml F(ab′)2 anti-IgM/IgG (Jackson ImmunoResearch 109-006-127) diluted in 1X HBSS (Invitrogen 14025-076), 50 mM HEPES, 0.1% BSA. Changes in intracellular calcium concentrations were measured for 180 seconds and percent inhibition was determined relative to peak calcium levels seen in the presence of F(ab′)2 anti-IgM/IgG only.
A general note: A change in cytosolic calcium serves as a functional read-out for many receptors and channels.

A further assay has as its target T1, human recombinant Btk (Homo sapiens, UniProt Q06187).
T1 construct: purchased Invitrogen Corporation
Description: Human Recombinant Btk Enzyme Assay. It is filed as biochemical. To be noted: human recombinant Btk 1 nM, ATP 20 μM, 60 min room temperature, Caliper LabChip. The procedure: Human Recombinant Btk Enzyme Assay
To V-bottom 384-well plates were added test compounds, human recombinant Btk (1 nM, Invitrogen Corporation), fluoresceinated peptide (1.5 μM), ATP (20 μM), and assay buffer (20 mM HEPES pH 7.4, 10 mM MgCl2, 0.015% Brij35 and 4 mM DTT in 1.6% DMSO), with a final volume of 30 μL. After incubating at room temperature for 60 min, the reaction was terminated by adding 45 μl of 35 mM EDTA to each sample. The reaction mixture was analyzed on the Caliper LabChip 3000 (Caliper, Hopkinton, Mass.) by electrophoretic separation of the fluorescent substrate and phosphorylated product. Inhibition data were calculated by comparison to no enzyme control reactions for 100% inhibition and no inhibitor controls for 0% inhibition. Dose response curves were generated to determine the concentration required inhibiting 50% of kinase activity (IC50). Compounds were dissolved at 10 mM in dimethylsulfoxide (DMSO) and evaluated at eleven concentrations.
Using this assay, the following IC50 values derived by non-linear regression analysis were determined and compared to those values of certain compounds in US 2007/0078136 and US 2008/0045536.

A further assay concerns Human tonsillar B cells. Nature of the assay: Human Tonsillar B Cell Proliferation Assay. It is filed as cell-based. The note with it: tonsillar B cells stimulated with anti Human IgG+IgM F(ab')2 40 μg/ml, 72 hours, 3[H]-thymidine. An excerpt:
Human Tonsillar B Cell Proliferation Assay
Tonsils were excised from patients undergoing routine tonsillectomy. Tonsil tissue was minced, mashed through screens and mononuclear cells were isolated on ficoll density gradients (Lymphocyte Separation Media; Mediatech Inc., Herndon, Va.). T cells were depleted from mononuclear cells by rosetting with sheep red blood cells (SRBC, Colorado Serum Company; Denver, Colo.). Tonsillar B cells prepared by this method were routinely >95% CD19^+ as measured by FACS analysis. B cells (1×10^5 cells per well) were added to serial dilutions of compounds in triplicate in 96-well flat-bottom plates in RPMI 1640, (Invitrogen, Grand Island, N.Y.), supplemented with 10% heat-inactivated fetal calf serum (FCS, Summit Biotechnology, Fort Collins, Colo.), and containing antibiotic/antimycotic (Invitrogen, 1:100 dilution) and gentamicin (Invitrogen, 5 μg/ml). Cells were stimulated with 40 μg/ml AffinPure F(ab′)2 Fragment Goat anti Human IgG+IgM (Jackson Immunoresearch, West Grove, Pa.) in a total volume of 0.2 ml. Cultures were incubated for 72 hours, and pulsed for the last 6 hours with one μCi/well of ^3[H]-thymidine (PerkinElmer, Boston, Mass.) prior to harvest on a Packard cell harvester (PerkinElmer), and counted by liquid scintillation on a Packard TopCount NXT (PerkinElmer).

Another assay concerns Mouse splenic B cells. Description: Mouse Splenic B Cell Proliferation Assay. To be noted: Balb/c splenic B cells stimulated with anti-mouse IgG IgM F(ab')2 10 μg/ml, 72 hours, 3[H]-thymidine. It is filed as cell-based. The procedure: Mouse Splenic B Cell Proliferation Assay
Spleens from Balb/c mice (<12 weeks old) were mashed through screens and red blood cells were removed from splenocytes with RBC lysing buffer (Sigma-Aldrich Chemical Co, —St. Louis, Mo.). T cells were depleted by incubation on nylon wool columns (Wako, Richmond, Va.). Resulting splenic B cells prepared this way were routinely >90% CD19^+ as measured by FACS analysis. B cells (1×10^5 cells per well) were added to serial dilutions of compounds in triplicate in 96-well flat-bottom plates in RPMI 1640 (Invitrogen, Grand Island, N.Y.), supplemented with 10% heat-inactivated fetal calf serum (FCS, Summit Biotechnology, Fort Collins, Colo.), containing 1% L-glutamine (Invitrogen), […] gentamicin (Invitrogen) and 5×10^−5M β-mercaptoethanol (Sigma-Aldrich). Cells were stimulated with 10 μg/ml of Affinipure F(ab′)2 fragment goat anti-mouse IgG IgM (Jackson Immunoresearch, West Grove, Pa.). Cultures were incubated for 72 hours, and pulsed for the last 6 hours with one μCi/well of ^3[H]-thymidine (PerkinElmer, Boston, Mass.) prior to harvest on a Packard cell harvester (PerkinElmer), and counted by liquid scintillation on a Packard TopCount NXT (PerkinElmer).

As a reminder, the IC50 is the concentration that inhibits the measured activity by half.

T1 sequence (Q06187 whole entry): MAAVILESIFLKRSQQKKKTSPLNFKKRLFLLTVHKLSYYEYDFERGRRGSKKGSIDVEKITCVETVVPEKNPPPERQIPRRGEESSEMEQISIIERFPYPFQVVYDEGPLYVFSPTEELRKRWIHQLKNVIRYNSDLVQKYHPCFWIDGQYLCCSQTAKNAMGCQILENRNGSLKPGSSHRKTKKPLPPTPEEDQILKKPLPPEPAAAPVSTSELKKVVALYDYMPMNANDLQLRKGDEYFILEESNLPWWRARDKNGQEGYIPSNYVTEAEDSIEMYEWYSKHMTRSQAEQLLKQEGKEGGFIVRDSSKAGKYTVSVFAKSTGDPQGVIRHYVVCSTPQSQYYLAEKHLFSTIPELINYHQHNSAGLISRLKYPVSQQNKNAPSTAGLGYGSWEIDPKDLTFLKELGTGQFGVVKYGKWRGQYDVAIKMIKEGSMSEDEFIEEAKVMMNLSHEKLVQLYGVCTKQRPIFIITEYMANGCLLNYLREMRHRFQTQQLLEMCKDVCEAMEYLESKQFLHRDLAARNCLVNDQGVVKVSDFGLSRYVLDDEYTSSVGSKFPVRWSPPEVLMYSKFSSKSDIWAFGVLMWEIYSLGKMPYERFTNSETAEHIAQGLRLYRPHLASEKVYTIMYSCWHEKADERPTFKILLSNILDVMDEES

For the compound `CC(C)(C)c1ccc(C(=O)N[C@@H]2CCCN(c3nc(Nc4ccc(C(=O)N5CCOCC5)cc4)c4nccn4n3)C2)cc1` [Example 1, (R)-4-tert-Butyl-N-(1-(4-(4-(morpholine-4-carbonyl)phenylamino)imidazo[1,2-f][1,2,4]triazin-2-yl)piperidin-3-yl)benzamide], the IC50 with Ramos RA1 B cells stood at 0.26 µM.

Take `CC(C)(C)c1ccc(C(=O)N[C@H]2CCCN(c3nc(Nc4ccc(C(=O)N5CCOCC5)cc4)c4nccn4n3)C2)cc1` [Example 2, (S)-4-tert-Butyl-N-(1-(4-(4-(morpholine-4-carbonyl)phenylamino)imidazo[1,2-f][1,2,4]triazin-2-yl)piperidin-3-yl)benzamide]: the values for the IC50 in the assay on Ramos RA1 B cells and on human recombinant Btk were 4.08 µM and 0.8 µM, respectively.

Turning to `O=C(N[C@@H]1CCCN(c2nc(Nc3ccc(C(=O)N4CCOCC4)cc3)c3nccn3n2)C1)OCc1ccccc1` [Example 4, (R)-Benzyl 1-(4-(4-(morpholine-4-carbonyl)phenylamino)imidazo[1,2-f][1,2,4]triazin-2-yl)piperidin-3-ylcarbamate], at human recombinant Btk, the IC50 is 0.2 µM.

In the assay on Human tonsillar B cells, `CN1CCN(C(=O)c2ccc(Nc3nc(N4CCC[C@@H](NC(=O)c5ccc(C(C)(C)C)cc5)C4)nn4ccnc34)cc2)CC1` [Example 5, (R)-4-tert-Butyl-N-(1-(4-(4-(4-methylpiperazine-1-carbonyl)phenylamino)imidazo[1,2-f][1,2,4]triazin-2-yl)piperidin-3-yl)benzamide] returned an IC50 of 0.037 µM.

`CC(C)(C)c1ccc(C(=O)N[C@@H]2CCCN(c3nc(Nc4ccc(C(=O)N5CCN(CCO)CC5)cc4)c4nccn4n3)C2)cc1` [Example 6, (R)-4-tert-Butyl-N-(1-(4-(4-(4-(2-hydroxyethyl)piperazine-1-carbonyl)phenylamino)imidazo[1,2-f][1,2,4]triazin-2-yl)piperidin-3-yl)benzamide]: the IC50 in the assay with Human tonsillar B cells was determined as 0.17 µM.

`CC(C)(C)c1ccc(C(=O)N[C@@H]2CCCN(c3nc(Nc4ccc(C(=O)N[C@@H]5CCNC5)cc4)c4nccn4n3)C2)cc1` [Example 9, 4-tert-Butyl-N—((R)-1-(4-(4-((S)-pyrrolidin-3-ylcarbamoyl)phenylamino)imidazo[1,2-f][1,2,4]triazin-2-yl)piperidin-3-yl)benzamide]: the results for the IC50 in the assay on Human tonsillar B cells and in the assay on Mouse splenic B cells were 1.91 µM and 1.29 µM, respectively.

In turn, `CC(C)(C)c1ccc(C(=O)N[C@@H]2CCCN(c3nc(Nc4ccc(C(N)=O)cc4)c4nccn4n3)C2)cc1` [Example 10, (R)-4-tert-Butyl-N-(1-(4-(4-carbamoylphenylamino)imidazo[1,2-f][1,2,4]triazin-2-yl)piperidin-3-yl)benzamide] came in with an IC50 in the assay with Mouse splenic B cells of 0.33 µM.

Consider `CC(C)(C)c1ccc(C(=O)N[C@@H]2CCCN(c3nc(Nc4ccc(C(=O)N5CCNCC5)cc4)c4nccn4n3)C2)cc1` [Example 11, (R)-4-tert-Butyl-N-(1-(4-(4-(piperazine-1-carbonyl)phenylamino)imidazo[1,2-f][1,2,4]triazin-2-yl)piperidin-3-yl)benzamide], for which the half-inhibitory concentration (IC50) in the assay with Ramos RA1 B cells stood at 0.028 µM; at human recombinant Btk, 0.013 µM.

Regarding `CC(C)(C)c1ccc(C(=O)N[C@@H]2CCCN(c3nc(Nc4ccc(C(=O)N[C@H]5CCNC5)cc4)c4nccn4n3)C2)cc1` [Example 12, 4-tert-Butyl-N—((R)-1-(4-(4-((R)-pyrrolidin-3-ylcarbamoyl)phenylamino)imidazo[1,2-f][1,2,4]triazin-2-yl)piperidin-3-yl)benzamide], the IC50 in the assay with Human tonsillar B cells stood at 1.58 µM.

On to `CC(C)(C)c1ccc(C(=O)N[C@@H]2CCCN(c3nc(Nc4ccc(C(=O)N5CC(O)C5)cc4)c4nccn4n3)C2)cc1` [Example 20], for which the IC50 at human recombinant Btk was 0.081 µM.

As for `Nc1cnc2c(Nc3ccc(C(=O)N4CCOCC4)cc3)nc(N3CCC[C@@H](NC(=O)c4cc5ccccc5[nH]4)C3)nn12` [Example 28, (R)—N-(1-(7-Amino-4-(4-(morpholine-4-carbonyl)phenylamino)imidazo[1,2-f][1,2,4]triazin-2-yl)piperidin-3-yl)-1H-indole-2-carboxamide], on human recombinant Btk, the IC50 amounted to 0.014 µM.

With `NC(=O)c1cnc2c(Nc3ccc(C(=O)N4CCOCC4)cc3)nc(N3CCC[C@@H](NC(=O)c4ccccc4)C3)nn12` [Example 30, (R)-2-(3-Benzamidopiperidin-1-yl)-4-(4-(morpholine-4-carbonyl)phenylamino)imidazo[1,2-f][1,2,4]-triazine-7-carboxamide], 0.98 µM corresponded to half-maximal inhibition in the assay on Mouse splenic B cells (IC50).

On to `CC(C)(C)c1ccc(C(=O)N[C@@H]2CCCN(c3nc(Nc4ccc(C(=O)N5CCOCC5)cc4)c4ncc(C#N)n4n3)C2)cc1` [Example 32, (R)-4-tert-Butyl-N-(1-(7-cyano-4-(4-(morpholine-4-carbonyl)phenylamino)imidazo[1,2-f][1,2,4]triazin-2-yl)piperidin-3-yl)benzamide], for which the IC50 on human recombinant Btk is 0.1 µM; in the assay on Mouse splenic B cells it was 0.31 µM.

`NCc1cnc2c(Nc3ccc(C(=O)N4CCOCC4)cc3)nc(N3CCC[C@@H](NC(=O)c4cc5ccccc5[nH]4)C3)nn12` [Example 35, (R)—N-(1-(7-(Aminomethyl)-4-(4-(morpholine-4-carbonyl)phenylamino)imidazo[1,2-f][1,2,4]triazin-2-yl)piperidin-3-yl)-1H-indole-2-carboxamide]: in the assay on Ramos RA1 B cells, the half-inhibitory concentration (IC50) is 1.24 µM.

In the case of `O=C(N[C@@H]1CCCN(c2nc(Nc3ccc(C(=O)N4CCOCC4)cc3)c3nccn3n2)C1)c1ccccc1` [Example 36, (R)—N-(1-(4-(4-(morpholine-4-carbonyl)phenylamino)imidazo[1,2-f][1,2,4]triazin-2-yl)piperidin-3-yl)benzamide], in the assay on Human tonsillar B cells, the IC50 is 0.45 µM.

Consider `N[C@H]1CC[C@H](Nc2cc(Nc3ccc4ccccc4n3)c3nccn3n2)CC1` [I(159) in US 2008/0045536, reference compound], for which the concentration for half-maximal inhibition (IC50) on human recombinant Btk came to 0.228 µM.

Take `Cc1c(N[C@H]2CC[C@H](N)CC2)nn2ccnc2c1Nc1ccc(C(=O)N2CCOCC2)cc1` [III(18) in US 2008/0045536, reference compound]: the IC50 on human recombinant Btk was above 50 µM.

Take `O=C(c1ccc(Nc2cc(N[C@H]3CCCNC3)nn3ccnc23)cc1)N1CCOCC1` [V(10) in US 2008/0045536, reference compound]: on human recombinant Btk, the IC50 was found to be 1.96 µM.

Take `CCOc1ccc(Nc2nc(N[C@H]3CC[C@H](N)CC3)nn3ccnc23)cc1` [XIII in US 2007/0078136, reference compound]: the half-maximal inhibitory concentration (IC50) at human recombinant Btk was 1.76 µM.

The values are drawn from patent publication US8188272B2, “Fused heterocyclic compounds useful as kinase modulators” (Bristol-Myers Squibb Company, priority 2007, dated 2012).
